The subject of one assay is MRSA in the nares. Put plainly: Nasal colonization human study Part One, quantitative swab cultures, MRSA. Particulars: for MRSA Average: laser w/ drug arm, one line per patient. In kind it is in vivo, S. aureus. As for the experimental part:
(§1) This investigational protocol was an open-label study of subjects who are colonized with MRSA in the nares (nostril). The study was done in two parts.
(§2) In this human study, three arms were produced. […] This was done on day 1 and again on day three; and Arm #3: ⅓ of the subjects were treated with the laser and then a topical antibiotic three times a day for five days. Prior to enrollment in this study, prospective subjects met all of the following criteria: age≧18 years and ≦70 years of age; previous positive MRSA culture; negative urine pregnancy test or post-menopausal for one year; willing to comply with study requirements, including return visits and self-application of topical antibiotics; and willing to provide informed consent to participate. Prospective subjects were excluded from this study if any of the following criteria were met: pregnancy; patients who are severely immunocompromised (such as may occur in AIDS, renal transplant regimens, immunosuppressed states consequent to malignancy or agents used in rendering oncologic care, or who suffer from end stage renal disease); diabetic patients; allergy to antimicrobials being used in the study (group 3).
(§3) All participants underwent an initial quantitative assessment for nasal carriage of S. aureus, during their first visit. Each participant had the anterior nares (each nostril) sampled for culture with a circular movement (three rotations on each side) of a sterile wood applicator plain Rayon® tipped swab in each nostril and placed in a labled tube. 2 ml of room temp phosphate buffered saline was placed in the tube after the removal of the swab (to completely cover the swab in the tube). Each swab was then placed back in the tube and the tube was then vortexed for 15 seconds to disperse isolates of MRSA and/or MSSA into the PBS solution. Aliquots of PBS from the tube were plated in the following manner: 100 μl from each tube was lawn plated in triplicate (3×) on selective Chromogenic MRSA And MSSA agar. Plates were placed in incubator within 30 minutes of the plating procedure, and colonies were counted manually, and recorded 18 hrs after plating.
(§4) On day one of the study, all subjects underwent this exact procedure in arms 1 and 2 of the study two minutes before the laser procedure. They again were sampled in the same manner 2 minutes after the laser procedure. In the third arm of the study, they were swabbed two minutes before the procedure and the first antibiotic administration was completed after the laser therapy. The post/laser swab sample was taken for this arm 20 min later.
(§5) On day three of the study, all subjects from arms one two and three underwent the exact same procedures as day 1 of the study.
(§6) On day five all subjects from all arms underwent just one swabbing per nostril with the exact same sampling procedure one time.
(§7) Application of H202: 3% OTC hydrogen peroxide was applied to a cotton pledget for application to the subject prior to irradiation. This was inserted in the nose for 120 seconds and then removed. The subjects were then given doses of phototherapeutic near infrared radiation as described. Application of generic topical Antimicrobial: The subjects were first given doses of phototherapeutic near infrared radiation as described. […] The swab was inserted approximately 1 cm in to the anterior nares and rotated 360 degrees several times and removed. Patients were instructed to perform the exact application procedure 3 times a day for the remaining 5 days.
(§8) The NOVEON™ laser was used for two (2) six-minute treatments in each nostril on day (1) and day (3) of the study.
(§9) The laser was calibrated before the first treatment of the day. Intermittent temperature testing of the treatment site was performed on each subject using a noncontact infrared thermometer (Raytek Minitemp), 30-60 second intervals.

In the next assay the test system is MRSA. Put plainly: CFU counts of MRSA plated on agar with antibiotic after sub-lethal NIMELS laser (Examples IX-XII). The class given is cell-based, Staphylococcus aureus. The settings on record: for MRSA colony count, EXPERIMENTAL: sub-lethal NIMELS laser. The text has this:
The following parameters illustrate the general bacterial methods according to the invention as applied to MRSA for the in vitro Experiments V and VIII-XII.
The null hypothesis is μ1−μ2=0 and μ1−μ3=0 where:
a) μ1 is sub-lethal dosimetry from the NIMEL laser system on MRSA as a control and;
The null hypothesis is μ1−μ2=0 and μ1−μ3=0 where: • a) μ1 is sub-lethal dosimetry from the NIMEL laser system on MRSA as a control and; • b)μ2 is the same sub-lethal dosimetry from the NIMEL laser system on MRSA with the addition of tetracycline at resistant MIC just below effectiveness level and; • c) μ3 is the same sub-lethal dosimetry from the NIMEL laser system on MRSA with the addition of rifampin at resistant MIC just below effectiveness level.
The null hypothesis is μ1−μ2=0 and μ1−μ3=0 where: a) μ1 is sub-lethal dosimetry from the NIMEL laser system on MRSA as a control and; b)μ2 is the same sub-lethal dosimetry from the NIMEL laser system on MRSA with the addition of methicillin at resistant MIC just below effectiveness level and; […]

The test system of another assay is MRSA (ATCC BAA-43). Put plainly: MRSA/antimicrobial potentiation, CFU on TSB agar with and without antibiotic after laser (Example XXII, Experiments 1-4). The class given is cell-based, Staphylococcus aureus subsp. aureus. The settings on record: for CFU/ml / CFU (single plate count) / AVG (CFU): Drug yes; for CFU (single plate count): agar with 30 μg/ml methicillin, 0.5 μg/ml penicillin G or 4 μg/ml erythromycin, 24 hrs 37° C., plates 1-5; for AVG (CFU): mean of 5 plates; for Drug Effect: CFU with drug relative to without drug; for Laser Effect (+Drug): Exp vs Cont, both with drug. The method, then:
Four separate experiments have been performed.
Eight different laser dosages were used to treat a saline-suspension of logarithmically growing MRSA, labeled A1 to H1.
The treated and a control untreated suspension were diluted and plated in triplicate on trypic soy agar with or without 30 μg/ml methicillin After 24 hrs of growth at 37° C. colonies were counted.
CFU (colony forming units) were compared between the plates with and without methicillin for both control (untreated) and treated MRSA.
The treated and a control untreated suspension were diluted and plated in triplicate on trypic soy agar with or without 30 μg/mlmethicillin.
After 24 hrs of growth at 37° C. colonies were counted.
The treated and a control untreated suspension were diluted and plated in pentuplicate on trypic soy agar with or without 30 μg/ml methicillin.

In the next assay the test system is MSSA in the nares. The assay is described as follows: Nasal colonization human study Part One, quantitative swab cultures, MSSA. Particulars: laser w/ drug arm, one line per patient. In kind it is in vivo, S. aureus. As for the experimental part:
as §1, §2, §3, §4, §5, §6, §7, §8, §9

Where [1] appears, read: Cont (no laser), groups A4/C4/E4.
[2] abbreviates: Cont (no laser), groups B4/D4/F4.
The mark [3] stands for this setting: Exp (laser 870+930 at 5 W 14 min, then 930 at 6 W 9 min), groups B4/D4/F4.
Setting [4] is: Exp (laser 870+930 at 5.5 W 12 min, then 930 at 8 W 6 min), groups A4/C4/E4.
The mark [5] stands for this setting: Initial Analysis, Post-treatment swab, left nostril.
The mark [6] stands for this setting: Initial Analysis, Post-treatment swab, right nostril.
[7] abbreviates: Initial Analysis, Pre swab (baseline), left nostril, mean of triplicate plates.
The mark [8] stands for this setting: Initial Analysis, Pre swab (baseline), right nostril.
Where [9] appears, read: Second Analysis, Post-treatment swab, left nostril.
[10] abbreviates: Second Analysis, Post-treatment swab, right nostril.
Where [11] appears, read: Second Analysis, Pre swab, left nostril.
The mark [12] stands for this setting: Second Analysis, Pre swab, right nostril.
Where [13] appears, read: Third Analysis, Swab, left nostril.
Where [14] appears, read: Third Analysis, Swab, right nostril.

Consider six molecules from US20110295343A1, “NEAR-INFRARED ELECTROMAGNETIC MODIFICATION OF CELLULAR STEADY-STATE MEMBRANE POTENTIALS” (priority 2008, published 2011).

Structures are written as SMILES. Values joined by “and” are separate entries in the source; they are usually repeats but may differ in a detail not shown here. Identical values can stand only once.

`OO` [H2O2, hydrogen peroxide]: the “outcome of Laser plus H2O2 arm on nasal colonization” value in the assay on MRSA in the nares (humans, topical 3% H2O2 120 seconds, then laser, day 1 and day 3) is “some transient benefit in some of the patients, but no obvious long-term efficacy”.

`CC1(C)S[C@@H]2[C@H](NC(=O)Cc3ccccc3)C(=O)N2[C@H]1C(=O)O` [Penicillin, penicillin G]: the “effect of sub-lethal NIMELS irradiation on antibiotic action against MRSA colonies (words)” value with MRSA (antibiotic at resistant MIC just below effectiveness level) is “successful reversal of MRSA resistance”. The CFU/ml in the assay with MRSA (ATCC BAA-43) (setting [1]) was found to be 3.25E+08 CFU/ml; in the assay on MRSA (ATCC BAA-43) (setting [2]) it was 3.98E+08 CFU/ml; in the assay with MRSA (ATCC BAA-43) (setting [3]), 7.14E+07 CFU/ml; with MRSA (ATCC BAA-43) (setting [4]), 9.12E+07 CFU/ml. Besides, the “CFU (single plate count)” value in the assay with MRSA (ATCC BAA-43) (setting [1]) was 106 CFU and 99 CFU and 102 CFU and 113 CFU and 122 CFU; with MRSA (ATCC BAA-43) (setting [2]) it was 101 CFU and 111 CFU and 138 CFU and 132 CFU and 182 CFU. For the same molecule, the “AVG (CFU)” value in the assay on MRSA (ATCC BAA-43) (setting [1]) came to 108.4 CFU; in the assay with MRSA (ATCC BAA-43) (setting [2]), 132.8 CFU; in the assay with MRSA (ATCC BAA-43) (setting [3]) it was 23.8 CFU; in the assay on MRSA (ATCC BAA-43) (setting [4]) it was 30.4 CFU. Also, the “Drug Effect” value stood at 0.75 with MRSA (ATCC BAA-43) (setting [1]), 1.07 with MRSA (ATCC BAA-43) (setting [2]), 0.31 in the assay with MRSA (ATCC BAA-43) (setting [3]) and 0.34 in the assay on MRSA (ATCC BAA-43) (setting [4]). In addition, the “Laser Effect (+Drug)” value in the assay on MRSA (ATCC BAA-43) (laser 870+930 at 5 W 14 min, then 930 at 6 W 9 min, groups B4/D4/F4) came out at 0.18; in the assay with MRSA (ATCC BAA-43) (laser 870+930 at 5.5 W 12 min, then 930 at 8 W 6 min, groups A4/C4/E4) it was 0.28. The “synergistic effect of NIMELS with antibiotic in growth inhibition of MRSA colonies” value in the assay on MRSA (ATCC BAA-43) (FIG. 17) was “being potentiated by sub-lethal NIMELS dosimetry”.

On to `OO` [Peroxide], for which the “MRSA Average” value in the assay on MRSA in the nares (setting [5]) was 0 CFU (2×) and 22 CFU and 1 CFU; in the assay on MRSA in the nares (setting [6]), 0 CFU (2×) and 455 CFU and 2752 CFU; with MRSA in the nares (setting [7]) it was 0 CFU (2×) and 63 CFU and 4 CFU; in the assay with MRSA in the nares (setting [8]) it was 0 CFU (2×) and 30 CFU and 4032 CFU; in the assay with MRSA in the nares (setting [9]) it was 0 CFU (3×) and 12 CFU; in the assay on MRSA in the nares (setting [10]) it was 0 CFU (2×) and 114 CFU and 3347 CFU. Also, the “MRSA Average” value in the assay with MRSA in the nares (setting [11]) was 0 CFU (2×) and 180 CFU and 17 CFU; in the assay with MRSA in the nares (setting [12]), 0 CFU (2×) and 90 CFU and 3099 CFU; with MRSA in the nares (setting [13]) it was 0 CFU (3×) and 827 CFU; with MRSA in the nares (setting [14]), 0 CFU (2×) and 563 CFU and 3648 CFU. Besides, the “s. aureus Average” value in the assay with MSSA in the nares (setting [5]) was 0 CFU (2×) and 20 CFU and 1 CFU; with MSSA in the nares (setting [6]), 0 CFU and 506 CFU and 146 CFU and 3272 CFU; in the assay on MSSA in the nares (setting [7]) it was 1 CFU and 53 CFU and 17 CFU and 124 CFU; with MSSA in the nares (setting [8]), 0 CFU and 29 CFU and 285 CFU and 3996 CFU; with MSSA in the nares (setting [9]) it was 0 CFU (3×) and 10 CFU; with MSSA in the nares (setting [10]), 0 CFU and 126 CFU and 5 CFU and 3589 CFU. In addition, the “s. aureus Average” value with MSSA in the nares (setting [11]) is 1 CFU and 206 CFU and 4 CFU and 12 CFU; with MSSA in the nares (setting [12]), 1 CFU and 94 CFU and 257 CFU and 4373 CFU; with MSSA in the nares (setting [13]), 1 CFU and 868 CFU and 28 CFU and 0 CFU; in the assay on MSSA in the nares (setting [14]), 1 CFU and 586 CFU and 52 CFU and 3493 CFU.

Take `CO[C@H]1/C=C/O[C@@]2(C)Oc3c(C)c(O)c4c(O)c(c(/C=N/N5CCN(C)CC5)c(O)c4c3C2=O)NC(=O)/C(C)=C\C=C\[C@H](C)[C@H](O)[C@@H](C)[C@@H](O)[C@@H](C)[C@H](OC(C)=O)[C@@H]1C` [Rifampin]: in the assay on MRSA (no laser, agar with rifampin 90 ug/ml, samples E1, E2, E3, 5 replicates each), the “MRSA colony count, CONTROL” value is 183 and 210 (3×) and 166 and 228 and 188 and 274 and 180 and 240 and 288 and 280 and 290 and 300. For the same molecule, the “MRSA colony count, EXPERIMENTAL” value in the assay with MRSA (agar with rifampin 90 ug/ml, samples E1, E2, E3, 5 replicates each) is 280 (2×) and 272 and 320 and 330 and 284 (2×) and 270 and 225 and 200 (2×) and 210 and 378.

Regarding `CN(C)[C@@H]1C(O)=C(C(N)=O)C(=O)[C@@]2(O)C(O)=C3C(=O)c4c(O)cccc4[C@@](C)(O)[C@H]3C[C@@H]12` [Tetracycline], the “MRSA colony count, CONTROL” value in the assay on MRSA (no laser, agar with tetracyc. 4 ug/ml, samples E1, E2, E3, 5 replicates each) is 240 and 256 and 268 and 310 (2×) and 255 and 280 and 283 and 263 and 260 and 368 and 380 and 375 and 390. Besides, in the assay on MRSA (agar with tetracyc. 4 ug/ml, samples E1, E2, E3, 5 replicates each), the “MRSA colony count, EXPERIMENTAL” value is 42 (2×) and 18 (2×) and 28 and 27 and 16 and 72 and 67 and 45 and 47 and 74 and 56 and 46 and 48.

On to `COc1cc(Cc2cnc(N)nc2N)cc(OC)c1OC` [Trimethoprim], for which the “MRSA colony count, CONTROL (no laser)” value in the assay on MRSA (no laser, agar with trimeth 2 ug/ml, replicates B-4 1 to 5) is 213 and 198 and 240 and 220 and 145. The “MRSA colony count, EXPERIMENTAL” value with MRSA (agar with trimeth 2 ug/ml, replicates B-4 1 to 5) was 100 and 110 and 125 and 138 and 115.
